Assay results from patent US6207677A, “Piperidine derivatives having anxiolytic effect” (H. Lundbeck A/S, priority 1991, dated 2001).
pIC50: −log10 of the molar value.

Target: sigma receptors
Test: Inhibition of 3H-DTG binding to sigma receptors in rat brain in vitro
Conditions: 2 nM 3H-DTG, rat brain without cerebellum, 25° C., 20 min
Description: INHIBITION OF 3H-DTG BINDING TO SIGMA RECEPTORS IN RAT BRAIN IN VITRO
By this method the inhibition by drugs of the binding of 2 nM ^3 H-DTG (1,3,di-o-tolyl guanidine) to sigma receptors in homogenates or membranes from rat brain without cerebellum is determined in vitro as modified from Weber et al. Proc. Natl. Acad. Sci. 1986, 83,8784.
Homogenate: Rats (150-250 g) are decapitated and the brains (without cerebellum) quickly removed and placed on ice, weighed and homogenized in 100 vol ice-cold (0° C.) 50 mM Tris-buffer (pH 7.7) in an ethanol rinsed glass/teflon homogenizer at 0° C. and kept on ice until use.
P2-membranes: Brains are homogenized in 10 vol 0.32 M sucrose in an ethanol rinsed glass/teflon homogenizer with 10 strokes up and down. The homogenate is centrifuged for 10 min at 900×gm at 4° C. The supernatant is decanted and centrifuged for 20 min at 50,000 gm at 4° C. The resulting pellet is resuspended in 10 vol ice-cold […] Tris-buffer (pH 7.7) and incubated for 30 min. at 37° C. The membrane suspension is then centrifuged for further 20 min. at 50,000 gm at 4° C. The pellet is resuspended in 50 vol. of ice-cold Tris-buffer and used immediately.
0.5 ml 50 mM Tris-buffer (pH 7.7), 0.25 ml displacer (6×100 μM DTG, 6× [test compound], or Tris-buffer), and 0.25 ml 6×2 nM. ^3 H-DTG are mixed into 5 ml s plastic test tubes and kept at 4° C. until use. The binding reaction is initiated by mixing 0.5 ml tissue suspension into this solution and incubate at 25° C. for 20 min. Glass fiber filters (Whatman GF/B) are placed on the filter machine which is then closed tightly. Just before filtration vacuum is applied, and the filters washed with 0.1% PEI solution from a spray bottle followed by one wash with Tris-buffer.
The binding reaction is stopped by filtration of the assay mixture at reduced pressure (750 mbar) followed by further 3 washes with 5 ml ice-cold Tris-buffer. The filters are then placed in counting vials and 4 ml scintillation solution added. The vials are counted in a Beckmann scintillation counter.
50 mM Tris-buffer pH 7.7: 7.38 g Trizma--7.7 plus distilled H2 O ad 1 liter. 100 ml 10% polyethylenimine (PEI): 100 ml dest. H2 O is added to approx. 20 g 50% PEI which is solubilized by stirring and heating. Diluted (1+99) before use. 6×2 nM ^3 H-DTG: The exact volume depends on the actual concentration of the batch, but is made as close as possible to 12 nM. The containers for the radioactive solution is rinsed in 96% ethanol before use.
^3 H-DTG was obtained from NEN Research Products, Du Pont Denmark. Specific activity 62.3 Ci/mmol.
The known sigma receptor ligands BMY 14802 and rimcazole were included in the test for comparison purposes.

Question: c1ccc(CCCCN2CCC3(CCCc4ccccc43)CC2)cc1 [Compound 2e, 3,4-Dihydro-1'-(4-phenyl-1-butyl)spiro[naphtalene-1(2H),4'-piperidine]] was tested. Which pIC50 did it give?
Answer: 8.92

Question: With Fc1ccc(-n2cc(OCCCN3CCC4(CC3)OCc3ccccc34)c3ccccc32)cc1 [Compound 8a, 1'-[3-[1-(4-Fluorophenyl)-3-indolyloxy]-1-propyl]spiro[isobenzofuran-1(3H),4'-piperidine]] as the compound, how does the pIC50 read?
Answer: 9.68

Question: c1ccc2c(c1)COC21CCN(CCCCc2cn(-c3ccsc3)c3ccccc23)CC1 [Compound 5c, 1'-(4-(1-(3-Thienyl)-3-indolyl]-1-butyl]spiro[isobenzofuran-1(3H),4'-piperidine]] was tested. Which pIC50 did it give?
Answer: 9.60

Question: How did the pIC50 turn out when Fc1ccc(C2CC3CCC(C2)N3CCCCc2noc3ccccc23)cc1 (stereo not shown) [Compound 24] was run?
Answer: 8.72

Question: How did the pIC50 turn out when Fc1ccc(C2CCN(CCCCc3noc4ccccc34)CC2)cc1 [Compound 19b, 3-[4-(4-(4-Fluorophenyl)-1-piperidyl)-1-butyl]-1,2-benzisoxazole] was run?
Answer: 9.31

Question: How did the pIC50 turn out when c1ccc(CCCCN2CCC3(CC2)SCc2ccccc23)cc1 [Compound 2d, 1'-(4-Phenyl-1-butyl)spiro[benzo[c]thiophene-1(3H),4'-piperidine]] was run?
Answer: 9.11

Question: c1ccc2c(c1)OC1(CCN(CCCCc3c[nH]c4ccccc34)CC1)O2 [Compound 25b, 1'-[4-(3-Indolyl)-1-butyl]-spiro[1.3-benzodioxole-2,4'-piperidine]] was tested. Which pIC50 did it give?
Answer: 7.44

Question: With c1ccc(CCCCN2CCC3(CCc4ccccc43)CC2)cc1 [Compound 2c, 2,3-Dihydro-1'-(4-phenyl-1-butyl)spiro[1H-indene-1,4'-piperidine]] as the compound, how does the pIC50 read?
Answer: 9.29

Question: How did the pIC50 turn out when c1ccc(OCCCN2CCC3(CC2)Cc2ccccc2CO3)cc1 [Compound 2l, 1'-(3-Phenoxy-1-propyl)spiro[3H-2-benzopyran-3,4'-piperidine]] was run?
Answer: 8.42

Question: How did the pIC50 turn out when c1ccc(C2CCN(CCCCc3c[nH]c4ccccc34)CC2)cc1 [Compound 2cc, 3-[4-(4-Phenyl-1-piperidyl)-1-butyl]indole] was run?
Answer: 8.96

Question: How did the pIC50 turn out when Fc1ccc2occ(CCCN3CCC4(CC3)OCc3ccccc34)c2c1 [Compound 15, 1'-[3-(5-Fluorobenzofuran-3-yl)-1-propyl)spiro[isobenzofuran-1(3H) ,4'-piperidine]] was run?
Answer: 9.38

Question: Fc1ccc(-n2cc(CCCCN3C4CCC3CC3(C4)OCc4ccccc43)c3ccccc32)cc1 (stereo not shown) [Compound 9d] was tested. Which pIC50 did it give?
Answer: 7.59

Question: c1ccc(CCCCN2CCC3(CC2)Oc2ccccc2O3)cc1 [Compound 25a, 1'-(4-Phenyl-1-butyl)-spiro[1,3-benzodioxole-2,4'-piperidine]] was tested. Which pIC50 did it give?
Answer: 7.96

Question: With C(=CC1CCc2ccccc21)CCN1CCC2(CC1)OCc1ccccc12 (stereo not shown) [Compound 29, 1'-[4-(1-Indanyl)-but-3-en-1-yl]-spiro[isobenzofuran-1(3H),4'-piperidine]] as the compound, how does the pIC50 read?
Answer: 9.92

Question: O=S(=O)(c1cccs1)n1cc(CCCCN2CCC3(CC2)OCc2ccc(F)cc23)c2ccccc21 [Compound 6c, 6-Fluoro-1'-(4-(1-(2-thienyl)sulfonyl-3-indolyl)-1-butyl)spiro[isobenzofuran-1(3H),4'-piperidine)] was tested. Which pIC50 did it give?
Answer: > 10.00

Question: How did the pIC50 turn out when Fc1ccc2c(c1)C1(CCN(CCCCc3c[nH]c4ccccc34)CC1)OC2 [Compound 2jj, 6-Fluoro-1'-(4-(3-indolyl)-1-butyl)spiro[isobenzofuran-1(3H),4'-piperidine]] was run?
Answer: 8.85

Question: With c1ccc(CCCCN2C3CCC2CC2(C3)OCc3ccccc32)cc1 (stereo not shown) [Compound 2t, 8'-(4-Phenyl-1-butyl)spiro[isobenzofuran-1(3H),3'-8-azabicyclo[3,2,1]octane]] as the compound, how does the pIC50 read?
Answer: 8.27

Question: CN(C)CCn1cc(CCCCN2CCC3(CC2)OCc2ccccc23)c2ccccc21 [Compound 36, 1'-[4-(1-(2-Dimethylamino-1-ethyl)-3-indolyl)-1-butyl]spiro[isobenzofuran-1(3H) ,4'-piperidine]] was tested. Which pIC50 did it give?
Answer: 8.35

Question: With c1ccc2c(c1)COC1(CCN(CCCSc3csc4ccccc34)CC1)C2 [Compound 31b, 1'-[3-(Benzo[b]thiophen-3-ylthio)-1-propyl] spiro[3H-2-benzopyran-3,4'-piperidine]] as the compound, how does the pIC50 read?
Answer: 8.59

Question: With Fc1ccc(C2=CC3CCC(C2)N3CCCCc2cn(-c3ccc(F)cc3)c3ccccc23)cc1 (stereo not shown) [Compound 23, 1-(4-Fluorophenyl)-3-[4-[3-(4-fluorophenyl)-8-azabicyclo[3,2,1]-oct-2-en-8-yl]-1-butyl]-indol] as the compound, how does the pIC50 read?
Answer: 8.60

Question: How did the pIC50 turn out when CN(C)c1ccc(C2CCN(CCCCc3cn(-c4ccc(F)cc4)c4ccccc34)CC2)cc1 [Compound 9o, 1-(4-Fluorophenyl)-3-[4-(4-(4-dimethylaminophenyl)-1-piperidyl)-1-butyl]indole] was run?
Answer: 8.17

Question: Fc1ccc(-n2cc(OCCCN3CCC4(CC3)OCc3ccccc34)c3ccc(Cl)cc32)cc1 [Compound 8b, 1'-[3-[6-Chloro-1-(4-fluorophenyl)-3-indolytoxy)-1-propyl]spiro[isobenzofuran-1(3M),4'-piperidine]] was tested. Which pIC50 did it give?
Answer: 8.77

Question: Fc1ccc(-n2cc(CCCCN3CCC(c4cccc(C(F)(F)F)c4)CC3)c3ccccc32)cc1 [Compound 9t, 1-(4-Fluorophenyl)-3-[4-(4-(3-trifluoromethylphenyl)-1-piperidyl)-1-butyl]indole] was tested. Which pIC50 did it give?
Answer: 8.49

Question: How did the pIC50 turn out when CC(C)c1ccc(C2CCN(CCCCc3cn(-c4ccc(F)cc4)c4ccccc34)CC2)cc1 [Compound 9n, 1-(4-Fluorophenyl)-3-[4-(4-(4-isopropylphenyl)-1-piperidyl)-1-butyl]indole] was run?
Answer: 8.20

Question: c1ccc2c(c1)COC21CCN(CCCCc2cn(-c3ccncc3)c3ccccc23)CC1 [Compound 5g, 1'-[4-[1-(4-Pyridyl)-3-indolyl]-1-butyl]spiro[isobenzofuran-1(3H),4'-piperidine]] was tested. Which pIC50 did it give?
Answer: 8.40

Question: Fc1ccc(C2CCN(CCOc3cn(-c4ccc(F)cc4)c4ccc(Cl)cc34)CC2)cc1 [Compound 14b] was tested. Which pIC50 did it give?
Answer: 8.42

Question: How did the pIC50 turn out when O=S(=O)(CCCN1CCC2(CC1)OCc1ccccc12)c1ccccc1 [Compound 2s, 1'-(3-Phenylsulfonyl-1-propyl)spiro[isobenzofuran-1 (3H),4'-piperidine]] was run?
Answer: 8.51

Question: With CC(=O)n1cc(CCCCN2CCC3(CC2)OCc2ccccc23)c2ccccc21 [Compound 7, 1'-(4-(1-Acetyl-3-indolyl)-1-butyl)spiro[isobenzofuran-1 (3H),4'-piperidine]] as the compound, how does the pIC50 read?
Answer: 9.68

Question: OC(CCCN1CCC2(CC1)OCc1ccccc12)c1ccccc1 (stereo not shown) [Compound 26b, 1'-(4-Phenyl-4-hydroxy-1-butyl)-spiro[isobenzofuran-1(3H),4'-piperidine]] was tested. Which pIC50 did it give?
Answer: 8.72

Question: Cc1ccc2scc(CCCCN3CCC4(CC3)OCc3ccccc34)c2c1 [Compound 10c, 1'-(4-(5-Methylbenzo[b]thiophen-3-yl)-1-butyl)spiro[isobenzofuran-1(3H),4'-piperidine]] was tested. Which pIC50 did it give?
Answer: 9.46

Question: Fc1ccc(-n2cc(CCCCN3CCC4(CC3)OCc3cccc(F)c34)c3ccccc32)cc1 [Compound 9g, 7-Fluoro-1'-[4-[1-(4-fluorophenyl)-3-indolyl]-1-butyl]spiro[isobenzofuran-1(3H), 4'-piperidine]] was tested. Which pIC50 did it give?
Answer: 8.38

Question: How did the pIC50 turn out when O=C1N(CCCCN2CCC3(CC2)OCc2ccccc23)CCN1C1CCCCC1 [Compound 3a, 1'-(4-(3-Cyclohexylimidazolidin-2-on-1-yl)-1-butyl)spiro[isobenzofuran-1 (3H), 4'-piperidine]] was run?
Answer: 8.66

Question: How did the pIC50 turn out when OC(CCCN1CCC2(CC1)OCc1ccccc12)C1CCCCC1 (stereo not shown) [Compound 26c, 1'-(4-Cyclohexyl-4-hydroxy-1-butyl)spiro[isobenzofuran-1(3h),4'-piperidine]] was run?
Answer: 9.85

Question: With c1ccc2c(c1)NCC2CCCCN1CCC2(CC1)Oc1ccccc1O2 (stereo not shown) [Compound 13a, 1'-[4-(2,3-Dihydro-3-indolyl)-1-butyl]spiro[1,3-benzodioxole-2,4'-piperidine]] as the compound, how does the pIC50 read?
Answer: 8.43

Question: How did the pIC50 turn out when c1ccc2c(c1)COC21CCN(CCOCc2csc3ccccc23)CC1 [Compound 35a, 1'-[2-(Benzo[b]thiophen-3-ylmethyloxy)-1-ethyl]spiro[isobenzofuran-1(3H),4'-piperidine]] was run?
Answer: 9.14

Question: How did the pIC50 turn out when CSCCCN1CCC2(CC1)OCc1ccccc12 [Compound 2n, 1'-(3-Methylthio-1-propyl)spiro[isobenzofuran-1(3H),4'-piperidine]] was run?
Answer: 8.22

Question: How did the pIC50 turn out when Cc1ccc(C2CCN(CCCOc3cn(-c4ccc(F)cc4)c4ccc(Cl)cc34)CC2)cc1 [Compound 8d, 5-Chloro-1-(4-fluorophenyl)-3-[3-(4-(4-methylphenyl)-1-piperidinyl)-1-propyloxy]indol] was run?
Answer: 7.96
